Some test systems named below: SK-MEL-28 melanoma; MDA-N; SNB-19 CNS; OVCAR-4 ovarian; SN12C renal; OVCAR-5 ovarian; KM12 colon; SK-OV-3 ovarian; SNB-75 CNS; BT-549 breast; RXF 393 renal; HS 578T breast; COLO 205 colon; HOP-92 NSCLC; 786-0 renal; HCT-116 colon; DU-145 prostate; LOX IMVI melanoma; MDA-MB-231 breast; HCT-15 colon.
Holding throughout (assay): inhibition of tumour cell growth, NCI panel, 48 h

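Each compound was tested at five concentrations against cells in 96-well plates for 48 hours. Definition used: TGI = concentration required for complete inhibition of growth.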 Where a SMILES comes first, the peptide text is derived from it. [ ]: non-standard residue; d: D form. The star is where a group is joined. ξ: configuration not given here. ξPhe(4-NO2) = NC(Cc1ccc([N+](=O)[O-])cc1)C(=O)O; Boc = CC(C)(C)OC(=O)*; OBn = c1ccc(CO*)cc1 Some results are limits rather than exact numbers.

With `C=C1CC2(OC1=O)c1ccccc1C=Cc1ccccc12`, the TGI came out at 9.32 µM in the experiment with SK-MEL-28 melanoma; 4.47 µM in the experiment with MDA-N; 29.9 µM in the experiment on SNB-19 CNS; 11.7 µM with OVCAR-4 ovarian; 7.14 µM in the experiment on SN12C renal; 22.5 µM with OVCAR-5 ovarian. The TGI came out at 12.3 µM in the experiment on KM12 colon; 30.8 µM with SK-OV-3 ovarian; 20.2 µM with SNB-75 CNS; 3.61 µM in the experiment with BT-549 breast; 8.12 µM with RXF 393 renal; 6.29 µM in the experiment on HS 578T breast. Further, the TGI with COLO 205 colon worked out at 5.82 µM; in the experiment with HOP-92 NSCLC, 3.44 µM; in the experiment on 786-0 renal it was 6.16 µM; in the experiment on HCT-116 colon it was 5.4 µM; in the experiment with DU-145 prostate, 23.6 µM; in the experiment on LOX IMVI melanoma it was 4.1 µM. For the same compound, the TGI turned out to be 5.41 µM in the experiment with MDA-MB-231 breast and 7.77 µM in the experiment with HCT-15 colon.
`CC(C)(C)OC(=O)NC(Cc1ccc([N+](=O)[O-])cc1)C(=O)NCC(=O)OCc1ccccc1` (stereo not given) (Boc-[ξPhe(4-NO2)]-Gly-OBn): the TGI in the experiment with SK-MEL-28 melanoma was 47.3 µM; with MDA-N, 39.8 µM; in the experiment with SNB-19 CNS it was > 100 µM; in the experiment with OVCAR-4 ovarian, > 100 µM; with SN12C renal, 45.9 µM; in the experiment on OVCAR-5 ovarian it was > 100 µM. In addition, the TGI in the experiment on KM12 colon is 59 µM; in the experiment with SK-OV-3 ovarian it was 64.8 µM; in the experiment on SNB-75 CNS, 41.5 µM; in the experiment with BT-549 breast, 59.6 µM; in the experiment on RXF 393 renal it was 53.1 µM; in the experiment with HS 578T breast, 54 µM. Further, the TGI in the experiment on COLO 205 colon worked out at 32.3 µM; in the experiment with HOP-92 NSCLC it was 65.9 µM; in the experiment on 786-0 renal, 33.8 µM; in the experiment on HCT-116 colon it was 68.2 µM; in the experiment on DU-145 prostate, 81.8 µM; in the experiment on LOX IMVI melanoma, 31.2 µM. In addition, the TGI is 80.3 µM in the experiment with MDA-MB-231 breast and 41.9 µM in the experiment with HCT-15 colon.
Take `Cn1cnc2c(OCC3CCCCC3)nc(N)nc21`: the TGI in the experiment with SK-MEL-28 melanoma, in the experiment on MDA-N, with SNB-19 CNS, with OVCAR-4 ovarian, in the experiment with SN12C renal and with OVCAR-5 ovarian was > 100 µM throughout. Further, the TGI with KM12 colon, in the experiment on SK-OV-3 ovarian, in the experiment on SNB-75 CNS, in the experiment with BT-549 breast, in the experiment with RXF 393 renal and in the experiment with HS 578T breast was > 100 µM each time. Further, the TGI in the experiment on COLO 205 colon, in the experiment with HOP-92 NSCLC, with 786-0 renal, with HCT-116 colon, in the experiment with DU-145 prostate and in the experiment with LOX IMVI melanoma was > 100 µM throughout. The TGI with MDA-MB-231 breast and in the experiment on HCT-15 colon was > 100 µM in each case.
Turning to `N#CC1=C(C#N)/C(=C(\C#N)C(C#N)C#N)N=C1N`, the TGI is 52 µM in the experiment on SK-MEL-28 melanoma; 30.3 µM in the experiment with MDA-N; > 100 µM in the experiment with SNB-19 CNS; > 100 µM in the experiment with OVCAR-4 ovarian; > 100 µM in the experiment on SN12C renal; > 93.9 µM with OVCAR-5 ovarian. Also, the TGI in the experiment with KM12 colon is > 100 µM; in the experiment with SK-OV-3 ovarian, > 100 µM; in the experiment on SNB-75 CNS it was > 81.8 µM; in the experiment with BT-549 breast, > 78.7 µM; with RXF 393 renal, > 100 µM; with HS 578T breast, > 100 µM. Further, the TGI in the experiment on COLO 205 colon was 57.3 µM; with HOP-92 NSCLC, > 75 µM; with 786-0 renal, > 100 µM; in the experiment on HCT-116 colon it was > 100 µM; in the experiment with DU-145 prostate, > 100 µM; with LOX IMVI melanoma it was 55.8 µM. Also, the figures for the TGI in the experiment on MDA-MB-231 breast and in the experiment on HCT-15 colon were > 100 µM and 64.3 µM, respectively.
Consider `COc1cc(C)cc2c1C(=O)C(Br)=CC2=O`, for which the TGI in the experiment with SK-MEL-28 melanoma was 33.3 µM; in the experiment on MDA-N, 8.16 µM; in the experiment with SNB-19 CNS it was 30.2 µM; in the experiment on OVCAR-4 ovarian, 7.71 µM; with SN12C renal it was 30.9 µM; in the experiment on OVCAR-5 ovarian it was 36.6 µM. Moreover, the TGI in the experiment on KM12 colon is 28.8 µM; in the experiment with SK-OV-3 ovarian, 33.8 µM; with SNB-75 CNS, 31.7 µM; in the experiment on BT-549 breast, 23.2 µM; with RXF 393 renal, 8.36 µM; in the experiment on HS 578T breast, 71.5 µM. The TGI with COLO 205 colon was determined as 3.23 µM; in the experiment on HOP-92 NSCLC, 5.41 µM; with 786-0 renal, 8.16 µM; with HCT-116 colon it was 18.6 µM; in the experiment with DU-145 prostate, 32.4 µM; in the experiment on LOX IMVI melanoma it was 25.7 µM. Also, the TGI with MDA-MB-231 breast came to 30.2 µM; in the experiment on HCT-15 colon it was 40.6 µM.
In the case of `C/C(=N\NS(=O)(=O)c1ccc(C)cc1)C(CN(C)C)C(c1ccccc1)c1c(O)c2ccccc2oc1=O` (stereo not given), the TGI with SK-MEL-28 melanoma, in the experiment on MDA-N, in the experiment on SNB-19 CNS, with OVCAR-4 ovarian, in the experiment with SN12C renal and in the experiment with OVCAR-5 ovarian was > 100 µM throughout. Moreover, the TGI in the experiment with KM12 colon is > 100 µM; in the experiment on SK-OV-3 ovarian, > 100 µM; in the experiment with SNB-75 CNS, > 84.7 µM; with BT-549 breast, > 100 µM; in the experiment with RXF 393 renal it was > 100 µM; in the experiment with HS 578T breast, > 100 µM. In addition, the TGI in the experiment with COLO 205 colon, in the experiment with HOP-92 NSCLC, in the experiment with 786-0 renal, in the experiment with HCT-116 colon, in the experiment on DU-145 prostate and in the experiment on LOX IMVI melanoma was > 100 µM each time. Further, the TGI in the experiment on MDA-MB-231 breast and with HCT-15 colon was > 100 µM throughout.

The record behind these values is PubChem BioAssay (NCI).
